Values after ≈ are worked out from the molar mass of the structure shown.
Key:
Type in all cases: functional
[1] = test system: Enterococcus faecalis; assay: Minimum inhibitory concentration (MIC) preventing growth of Streptococcus faecalis ATCC 10541
[2] = test system: Staphylococcus aureus; assay: Minimum inhibitory concentration (MIC) preventing growth of […]
[3] = test system: Bacillus subtilis; assay: Minimum inhibitory concentration (MIC) preventing growth of Bacillus subtilis
[4] = test system: Proteus vulgaris; assay: Minimum inhibitory concentration (MIC) preventing growth of Proteus vulgaris
[5] = test system: Enterobacter cloacae; assay: Minimum inhibitory concentration (MIC)preventing growth of Enterobacter cloacae
[6] = test system: Staphylococcus epidermidis; assay: Minimum inhibitory concentration (MIC) preventing growth of Staphylococcus epidermidis
[7] = test system: Escherichia coli; assay: Minimum inhibitory concentration (MIC)preventing growth of Escherichia coli
[8] = test system: Pseudomonas aeruginosa; assay: Minimum inhibitory concentration (MIC)preventing growth of Pseudomonas aeruginosa
[9] = test system: Klebsiella pneumoniae; assay: Minimum inhibitory concentration (MIC)preventing growth of Klebsiella pneumoniae
[10] = test system: Bacillus cereus; assay: Minimum inhibitory concentration (MIC) preventing growth of Bacillus cereus
[11] = test system: Morganella morganii; assay: Minimum inhibitory concentration (MIC) preventing growth of Morganella morganii

| MIC [1] [µg/mL] | MIC [2] [µg/mL] | MIC [3] [µg/mL] | MIC [4] [µg/mL] | MIC [5] [µg/mL] | MIC [6] [µg/mL] | MIC [7] [µg/mL] | MIC [8] [µg/mL] | MIC [9] [µg/mL] | MIC [10] [µg/mL] | MIC [11] [µg/mL] | Structure (SMILES) |
| --- | --- | --- | --- | --- | --- | --- | --- | --- | --- | --- | --- |
| 0.5 (≈ 1.34 µM) | 0.06 (≈ 0.16 µM) | 0.03 (≈ 0.0801 µM) | 0.12 (≈ 0.32 µM) | 0.03 (≈ 0.0801 µM) | 0.06 (≈ 0.16 µM) | 0.03 (≈ 0.0801 µM) | 0.5 (≈ 1.34 µM) | 0.03 (≈ 0.0801 µM) | 0.12 (≈ 0.32 µM) | 0.06 (≈ 0.16 µM) | CCNC1CN(c2cc3c(cc2F)c(=O)c2c(=O)[nH]sc2n3C2CC2)C1 |
| 2 (≈ 5.91 µM) | 0.5 (≈ 1.48 µM) | 0.12 (≈ 0.355 µM) | 1 (≈ 2.96 µM) | 0.12 (≈ 0.355 µM) | 0.5 (≈ 1.48 µM) | 0.06 (≈ 0.177 µM) | 2 (≈ 5.91 µM) | 0.06 (≈ 0.177 µM) | 0.5 (≈ 1.48 µM) | 0.12 (≈ 0.355 µM) | CC1(N)CN(c2nc3c(cc2F)c(=O)c(C(=O)O)cn3CCF)C1 |
| 0.25 (≈ 0.694 µM) | 0.12 (≈ 0.333 µM) | 0.03 (≈ 0.0832 µM) | 0.12 (≈ 0.333 µM) | 0.12 (≈ 0.333 µM) | 0.12 (≈ 0.333 µM) | 0.03 (≈ 0.0832 µM) | 0.5 (≈ 1.39 µM) | 0.12 (≈ 0.333 µM) | 0.12 (≈ 0.333 µM) | 0.06 (≈ 0.166 µM) | CNC1CN(c2cc3c(cc2F)c(=O)c2c(=O)[nH]sc2n3C2CC2)C1 |
| 1 (≈ 2.84 µM) | 0.5 (≈ 1.42 µM) | 0.12 (≈ 0.341 µM) | 0.5 (≈ 1.42 µM) | 0.25 (≈ 0.71 µM) | 0.5 (≈ 1.42 µM) | 0.25 (≈ 0.71 µM) | 2 (≈ 5.68 µM) | 0.25 (≈ 0.71 µM) | 1 (≈ 2.84 µM) | 0.25 (≈ 0.71 µM) | CCn1cc(C(=O)O)c(=O)c2c(N)c(F)c(N3CC(C)(N)C3)c(F)c21 |
| 0.03 (≈ 0.0687 µM) | 0.06 (≈ 0.137 µM) | 0.06 (≈ 0.137 µM) | 0.25 (≈ 0.573 µM) | 0.06 (≈ 0.137 µM) | 0.06 (≈ 0.137 µM) | 0.12 (≈ 0.275 µM) | 0.5 (≈ 1.15 µM) | 0.25 (≈ 0.573 µM) | 0.06 (≈ 0.137 µM) | 0.12 (≈ 0.275 µM) | CC1(N)CN(c2c(F)c(N)c3c(=O)c(C(=O)O)cn(-c4ccc(F)cc4F)c3c2F)C1 |
| 2 (≈ 5.47 µM) | 0.5 (≈ 1.37 µM) | 0.12 (≈ 0.328 µM) | 1 (≈ 2.74 µM) | 0.25 (≈ 0.684 µM) | 0.5 (≈ 1.37 µM) | 0.25 (≈ 0.684 µM) | 2 (≈ 5.47 µM) | 0.06 (≈ 0.164 µM) | 0.5 (≈ 1.37 µM) | 0.5 (≈ 1.37 µM) | CC1(N)CN(c2c(F)cc3c(=O)c(C(=O)O)cn(C(C)(C)C)c3c2F)C1 |
| 1 (≈ 3.14 µM) | 0.12 (≈ 0.377 µM) | 0.015 (≈ 0.0471 µM) | 0.12 (≈ 0.377 µM) | 0.12 (≈ 0.377 µM) | 0.12 (≈ 0.377 µM) | 0.12 (≈ 0.377 µM) | 2 (≈ 6.28 µM) | 0.12 (≈ 0.377 µM) | 0.12 (≈ 0.377 µM) | 0.25 (≈ 0.785 µM) | O=C(O)c1cn(C2CC2)c2cc(N3CC(O)C3)c(F)cc2c1=O |
| 4 (≈ 11.6 µM) | 1 (≈ 2.9 µM) | 0.06 (≈ 0.174 µM) | 1 (≈ 2.9 µM) | 1 (≈ 2.9 µM) | 0.5 (≈ 1.45 µM) | 1 (≈ 2.9 µM) | 8 (≈ 23.2 µM) | 0.5 (≈ 1.45 µM) | 0.5 (≈ 1.45 µM) | 1 (≈ 2.9 µM) | N#CC1CN(c2c(F)cc3c(=O)c(C(=O)O)cn(C4CC4)c3c2F)C1 |
| 0.5 (≈ 1.21 µM) | 0.06 (≈ 0.145 µM) | 0.015 (≈ 0.0362 µM) | 0.25 (≈ 0.603 µM) | 0.5 (≈ 1.21 µM) | 0.06 (≈ 0.145 µM) | 0.25 (≈ 0.603 µM) | 8 (≈ 19.3 µM) | 0.015 (≈ 0.0362 µM) | 0.12 (≈ 0.29 µM) | 0.5 (≈ 1.21 µM) | CS(=O)(=O)OC1CN(c2c(F)cc3c(=O)c(C(=O)O)cn(C4CC4)c3c2F)C1 |
| 1 (≈ 2.68 µM) | 0.25 (≈ 0.669 µM) | 0.12 (≈ 0.321 µM) | 0.25 (≈ 0.669 µM) | 0.25 (≈ 0.669 µM) | 0.5 (≈ 1.34 µM) | 0.12 (≈ 0.321 µM) | 4 (≈ 10.7 µM) | 0.5 (≈ 1.34 µM) | 0.12 (≈ 0.321 µM) | 0.5 (≈ 1.34 µM) | CCNCC1(C)CN(c2cc3c(cc2F)c(=O)c(C(=O)O)cn3C2CC2)C1 |
| 1 (≈ 2.83 µM) | 0.25 (≈ 0.707 µM) | 0.06 (≈ 0.17 µM) | 0.5 (≈ 1.41 µM) | 0.06 (≈ 0.17 µM) | 0.25 (≈ 0.707 µM) | 0.03 (≈ 0.0848 µM) | 1 (≈ 2.83 µM) | 0.03 (≈ 0.0848 µM) | 0.25 (≈ 0.707 µM) | 0.06 (≈ 0.17 µM) | CCn1cc(C(=O)O)c(=O)c2cc(F)c(N3CC(C)(N)C3)c(Cl)c21 |
| 0.5 (≈ 1.45 µM) | 0.25 (≈ 0.724 µM) | 0.06 (≈ 0.174 µM) | 0.12 (≈ 0.347 µM) | 0.25 (≈ 0.724 µM) | 0.25 (≈ 0.724 µM) | 0.12 (≈ 0.347 µM) | 1 (≈ 2.9 µM) | 0.25 (≈ 0.724 µM) | 0.12 (≈ 0.347 µM) | 0.12 (≈ 0.347 µM) | CC1(CN)CN(c2cc3c(cc2F)c(=O)c(C(=O)O)cn3C2CC2)C1 |
| 2 (≈ 5.01 µM) | 0.25 (≈ 0.626 µM) | 0.015 (≈ 0.0376 µM) | 1 (≈ 2.5 µM) | 2 (≈ 5.01 µM) | 0.25 (≈ 0.626 µM) | 1 (≈ 2.5 µM) | 8 (≈ 20 µM) | 0.25 (≈ 0.626 µM) | 0.25 (≈ 0.626 µM) | 1 (≈ 2.5 µM) | CC1(n2cccc2)CN(c2c(F)cc3c(=O)c(C(=O)O)cn(C4CC4)c3c2F)C1 |
| 0.12 (≈ 0.298 µM) | 0.25 (≈ 0.62 µM) | 0.12 (≈ 0.298 µM) | 0.25 (≈ 0.62 µM) | 0.25 (≈ 0.62 µM) | 0.25 (≈ 0.62 µM) | 0.12 (≈ 0.298 µM) | 2 (≈ 4.96 µM) | 0.12 (≈ 0.298 µM) | 0.25 (≈ 0.62 µM) | 0.25 (≈ 0.62 µM) | CC1(N)CN(c2cc3c(cc2F)c(=O)c(C(=O)O)cn3-c2ccc(F)cc2F)C1 |

Source: ChEMBL document CHEMBL1126625, “7-Azetidinylquinolones as antibacterial agents. Synthesis and structure-activity relationships” (J Med Chem, 1993)
